From patent EP0600782A1, “C-11 modified pradimicin derivatives” (priority 1992, dated 1994) come the findings set out here.

The term LD50 denotes the dose expected to kill half of the subjects tested.

Read-outs that look alike come from different tables or passages of the source.

Data set [1] deals with Candida albicans ATCC 38247. The data set is described as follows: In vitro antifungal activity (MIC), agar dilution method, 11-xylosyl precursors. It is filed as cell-based. The note with it: 10^6 cells/ml, 28°C, 40 hrs. Here is the method:
(§1) The in vitro antifungal activities of pradimicins T1 and T2 and 11-0-dexylosylpradimicin T1 were determined by the agar dilution method on yeast morphology agar containing 1/15M phosphate buffer (pH 7.0).

In data set [2] the test system is Candida albicans 83-2-14 (Juntendo). The description is as above. It is filed as cell-based. The note with it: yeast morphology agar + 1/15M phosphate buffer (pH 7.0), 10^6 cells/ml, 28°C, 40 hrs. Here is the method:
as §1

Data set [3] has as its system Aspergillus fumigatus IAM 2034. The data set is described as above. The class given is cell-based. The note with it: 10^6 cells/ml, 28°C, 40 hrs. Here is the method:
as §1

Data set [4] concerns Candida tropicalis 85-8 (Kitasato). The description is as above. It is filed as cell-based. The note with it: yeast morphology agar + 1/15M phosphate buffer (pH 7.0), 10^6 cells/ml, 28°C, 40 hrs. Here is the method:
as §1

Data set [5] concerns Candida tropicalis IFO 10241. Described as above. The class given is cell-based. The note with it: 10^6 cells/ml, 28°C, 40 hrs. The method, then:
as §1

Data set [6] deals with Cryptococcus neoformans IAM 4514. The data set is described as above. It is filed as cell-based. The note with it: 10^6 cells/ml, 28°C, 40 hrs. The method, then:
as §1

The test system of data set [7] is Saccharomyces cerevisiae ATCC 9763. The data set is described as above. The class given is cell-based. The note with it: 10^6 cells/ml, 28°C, 40 hrs. The method, then: as §1
The subject of data set [8] is Trichophyton mentagrophytes 4329. The description is as above. It is filed as cell-based. The note with it: yeast morphology agar + 1/15M phosphate buffer (pH 7.0), 10^7 cells/ml, 28°C, 60 hrs. Here is the method: as §1
Data set [9] concerns Cryptococcus neoformans D49. The data set is described as above. The note with it: yeast morphology agar + 1/15M phosphate buffer (pH 7.0), 10^6 cells/ml, 28°C, 40 hrs. The class given is cell-based. The method, then:
as §1

In data set [10] the test system is Candida albicans ATCC 32354 (B311). Described as above. The note with it: 10^6 cells/ml, 28°C, 40 hrs. The class given is cell-based. The method, then: as §1
For a further data set, the system named is Candida albicans A9540. The description is as above. The class given is cell-based. The note with it: yeast morphology agar + 1/15M phosphate buffer (pH 7.0), 10^6 cells/ml, 28°C, 40 hrs. Here is the method:
as §1

The subject of data set [11] is Candida albicans A9540 systemic infection. Briefly: In vivo efficacy against systemic infection in mice. The note with it: for ED50: Candida albicans, iv, 480 h, read-out: PD50; for PD50: C. albicans A9540 systemic infection, male ICR mice, single intravenous dose immediately after challenge, survival rate 20 days after infection. The arrangement: species or system male ICR mice. The method, then: (§2) Pradimicins T1 and T2 were evaluated for in vivo efficacy against a Candida albicans A9540 systemic infection in male ICR mice (20-24 g body weight) as described by Oki et al. in "Water-soluble pradimicin derivatives, synthesis and antifungal evaluation of N,N,-dimethyl pradimicins", J. Antibiotics 43:1230-1235, 1990. Five mice at each dose level were challenged intravenously with ten times the 50% lethal dose of the pathogen suspended in saline. Antibiotics were intravenously administered once immediately after the fungal challenge. Infection control animals (n=10) died from 7 to 12 days. The 50% protective dose (PD₅₀) was calculated from the survival rate 20 days after the fungal infection. The acute toxicity of pradimicins T1 and T2 was determined in mice after a single intravenous dose.

Data set [12] can be described thus: Acute toxicity in mice after a single intravenous dose. The class given is in vivo. The method, then:
as §2

Setting [13] is: ATCC38247, yeast morphology agar + 1/15M phosphate buffer (pH 7.0), read-out: MIC.
[14] abbreviates: IAM2034, yeast morphology agar + 1/15M phosphate buffer (pH 7.0), read-out: MIC.
The mark [15] stands for this setting: IFO10241, yeast morphology agar + 1/15M phosphate buffer (pH 7.0), read-out: MIC.
The mark [16] stands for this setting: IAM4514, yeast morphology agar + 1/15M phosphate buffer (pH 7.0), read-out: MIC.
[17] abbreviates: ATCC9763, yeast morphology agar + 1/15M phosphate buffer (pH 7.0), read-out: MIC.
Where [18] appears, read: ATCC32354, yeast morphology agar + 1/15M phosphate buffer (pH 7.0), read-out: MIC.
[19] abbreviates: yeast morphology agar + 1/15M phosphate buffer (pH 7.0).

Consider `Cc1cc2c(c(O)c1C(=O)NCC(=O)O)-c1c(cc3c(c1O)C(=O)c1cc(O)cc(O)c1C3=O)[C@H](O)[C@H]2O[C@@H]1O[C@H](C)[C@H](O)[C@H](O[C@@H]2OC[C@@H](O)[C@H](O)[C@H]2O)[C@H]1O` [11-O-Dexylosyl-pradimicin T1], for which the MIC came to 3.1 µg/mL in [1] (setting [13]); 3.1 µg/mL in [2] (read-out: MIC); 25 µg/mL in data set [3] (setting [14]); 12.5 µg/mL in data set [4] (read-out: MIC); 12.5 µg/mL in [5] (setting [15]); 6.3 µg/mL in data set [6] (setting [16]). Moreover, the MIC in [7] (setting [17]) was 3.1 µg/mL; in data set [8] (read-out: MIC), 12.5 µg/mL; in data set [9] (read-out: MIC) it was 6.3 µg/mL; in data set [10] (setting [18]) it was 3.1 µg/mL; in the data set with Candida albicans A9540 (read-out: MIC), 6.3 µg/mL.
Consider `C[C@@H]1[C@H](O)[C@@H](C)/C=C/C=C/C=C/C=C/C=C/C=C/C=C/[C@H](O[C@@H]2O[C@H](C)[C@@H](O)[C@H](N)[C@@H]2O)C[C@@H]2O[C@](O)(C[C@@H](O)C[C@@H](O)[C@H](O)CC[C@@H](O)C[C@@H](O)CC(=O)O[C@H]1C)C[C@H](O)[C@H]2C(=O)O` [Amphotericin B, reference compound], for which, in [11], the ED50 stood at 0.2 mg/kg. Further, the LD50 in [12] (mouse, in vivo, read-out: LD50) came out at 4.5 mg/kg.
Take `CC(=O)N1CCN(c2ccc(OCC3COC(Cn4ccnc4)(c4ccc(Cl)cc4Cl)O3)cc2)CC1` (centres unmarked) [Ketoconazole, reference compound]: the ED50 in data set [11] is greater than 50 mg/kg. Moreover, the MIC in data set [1] (setting [13]) worked out at 25 µg/mL; in [3] (setting [14]) it was 3.1 µg/mL; in [4] (read-out: MIC), 100 µg/mL; in data set [5] (setting [15]) it was 50 µg/mL; in data set [6] (setting [16]), 0.4 µg/mL; in data set [7] (setting [17]), 50 µg/mL. In addition, the MIC in data set [8] (read-out: MIC) turned out to be 0.8 µg/mL; in data set [9] (read-out: MIC) it was 0.8 µg/mL; in data set [10] (setting [18]) it was 50 µg/mL; in the data set with Candida albicans A9540 (read-out: MIC) it was 50 µg/mL.
In data set [11], Pradimicin T1 showed a PD50 of 27 mg/kg. Also, in data set [12], the LD50 was 300 mg/kg. Moreover, the MIC was 1.6 µg/mL in [1] (setting [19]); 6.3 µg/mL in data set [2]; 6.3 µg/mL in data set [3] (setting [19]); 25 µg/mL in data set [4]; 12.5 µg/mL in data set [5] (setting [19]); 3.1 µg/mL in [6] (setting [19]). Moreover, the MIC in data set [7] (setting [19]) was 3.1 µg/mL; in data set [8], 6.3 µg/mL; in [9], 3.1 µg/mL; in [10] (setting [19]), 6.3 µg/mL; in the data set with Candida albicans A9540 it was 6.3 µg/mL.
The molecule Pradimicin T2 gave a PD50 in [11] greater than 50 mg/kg. The molecule further yielded an LD50 in data set [12] greater than 600 mg/kg. Besides, the MIC in data set [1] (setting [19]) is 1.6 µg/mL; in [2] it was 3.1 µg/mL; in data set [3] (setting [19]) it was greater than 100 µg/mL; in data set [4], 6.3 µg/mL; in data set [5] (setting [19]) it was 6.3 µg/mL; in data set [6] (setting [19]), 6.3 µg/mL. For the same molecule, the MIC in data set [7] (setting [19]) is 0.8 µg/mL; in data set [8], 50 µg/mL; in [9], 6.3 µg/mL; in data set [10] (setting [19]) it was 3.1 µg/mL; in the data set on Candida albicans A9540, 3.1 µg/mL.
